Where two headings read alike, the source gives them in different places.
What was measured:
animal models = conditions: cited from earlier work
AKI in adult patients = assay: Epidemiologic EHR analysis (Vanderbilt 'Synthetic Derivative') of montelukast use and AKI; format: in vivo, human; conditions: N=3,721 adult patients, 147 users; logistic regression adjusted for race, sex, age, BMI, asthma; 95% CI: 13 to 56%; AKI defined as printed '≥21.5-fold serum creatine increase from baseline'
Description: Epidemiologic EHR data from Vanderbilt's ‘Synthetic Derivative’ was examined to determine whether montelukast use is associated with decreased AKI. Individuals eligible for inclusion in the dataset included those with two or more serum creatinine labs occurring after montelukast gained marketing approval (N=3,721), and children were excluded. Montelukast users were defined as those with ≥23 mentions of montelukast where 22 mentions are 230 days apart (N=147). AKI was defined as a ≥21.5-fold serum creatine increase from baseline (N=1,220). ‘Case users’ were defined as those who qualified as both an AKI case and a montelukast user (N=58). Crude and adjusted odds ratios (OR) and 95% confidence intervals (CI) were calculated using logistic regression.

[1] = cited from earlier work
asthma patients (FEV1) = conditions: cited from earlier work
[2] = cited from earlier work; remark: listed apart in the source
[3] = single oral dose of 10, 100, or 250 mg

CC(C)(O)c1ccccc1CC[C@@H](SCC1(CC(=O)O)CC1)c1cccc(/C=C/c2ccc3ccc(Cl)cc3n2)c1 [Montelukast, [R-(E)]-1-[[[1-[3-[2-(7-chloro-2-quinolinyl)ethenyl]phenyl]-3-[2-(1-hydroxy-1-methylethyl)phenyl]propyl]thio]methyl]cyclopropaneacetic acid]
markers of inflammation (animal models): attenuate markers of inflammation | markers of oxidative stress (animal models; leukotriene antagonists such as montelukast): attenuate markers of oxidative stress | reduced odds (risk) of AKI, montelukast users compared to non-users (AKI in adult patients): 38% | plasma concentration in dose ranging study ([1]; dose ranging study of 20-800 mg): dose-dependent increase in plasma concentration | half-life ([1]; human, in vivo): 5 h | potential for drug-drug interactions ([1]; human, in vivo): low potential for drug-drug interactions | steady state plasma levels achieved ([1]; human, in vivo): 2 Day of dosing | pharmacokinetics in elderly volunteers versus younger adults ([1]; oral 10 mg, elderly (aged 265 years as printed) vs younger adults (aged 20 to 45 years)): similar | elimination via the renal route ([1]; package insert): not significantly eliminated via the renal route | FEV1 increase at higher doses versus 10 mg once daily (asthma patients (FEV1); 200 mg three times per day): failed to increase FEV1 more than 10 mg once daily | period for which FEV1 effects were maintained (asthma patients (FEV1); [3]): 24 h | time to significant improvement of FEV1 after administration (asthma patients (FEV1); [3]): ≤ 1 h | adverse events ([2]; 200 mg three times per day for 10 days): no significant adverse events | safety or effectiveness in subjects 65 years and over versus younger subjects ([2]; clinical studies of montelukast, 3.5% were 65 and over, 0.4% were 75 and over): No overall differences in safety or effectiveness | neuropsychiatric disturbances ([2]; phase IV post marketing studies, chronic montelukast users, additional research did not support this finding): concern for neuropsychiatric disturbances was noted | adverse events ([2]; single doses of 800 mg): no significant adverse events

Source: patent US12383547B2, “Methods of treatment for a kidney disease” (Vanderbilt University, priority 2020, dated 2025)
